Results: publication PMC11649117, “SLMO transfers phosphatidylserine between the outer and inner mitochondrial membrane in Drosophila” (PLOS Biology, 2024)

Molecular target: T1, SLMO (Slowmo); MBP-SLMO (Drosophila melanogaster, UniProt Q9V3U9)
T1 construct: N-terminal MBP fusion from pMAL-c6T (BamHI/EcoRI), E. coli BL21(DE3), Ni-NTA purified; tag kept
T1 sequence (Q9V3U9 1-215): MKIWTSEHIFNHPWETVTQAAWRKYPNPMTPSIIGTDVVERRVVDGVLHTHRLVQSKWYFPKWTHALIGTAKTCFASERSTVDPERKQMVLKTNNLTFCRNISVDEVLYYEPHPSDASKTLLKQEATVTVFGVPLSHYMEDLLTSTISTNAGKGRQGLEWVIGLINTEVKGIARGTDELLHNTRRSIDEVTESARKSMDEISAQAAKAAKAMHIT
Assay: liposome lipid transfer assay, NBD dequenching
Format: biochemical
Conditions: labelled compound, donor liposomes PC:PE:Rhod-PE:NBD-PS 56:40:3:1, acceptor PC:PE:CL 55:40:5, no chemical conversion

CCCCCCCC/C=C\CCCCCCCC(=O)OC[C@H](COP(=O)(O)OC[C@H](N)C(=O)O)OC(=O)CCCCCCCCCCCNc1ccc([N+](=O)[O-])c2nonc12 [NBD-PS]
liposome lipid transfer assay, NBD dequenching: SLMO efficiently transported PS but not PE between liposomes in vitro
